Laboratory results published in ChEMBL document CHEMBL1240489, “Discovery of N-{1-[3-(3-oxo-2,3-dihydrobenzo[1,4]oxazin-4-yl)propyl]piperidin-4-yl}-2-phenylacetamide (Lu AE51090): an allosteric muscarinic M1 receptor agonist with unprecedented selectivity and procognitive potential” (J Med Chem, 2010).

Columns and labels:
[1] = target: T1, Muscarinic acetylcholine receptor M1 (Homo sapiens) (UniProt P11229); experiment: Agonist activity at human muscarinic M1 receptor expressed in CHO-K1 cells assessed as increase of acetylcholine-induced calcium flux by FLIPR assay relative to acetylcholine; assay type: functional, cell-based
T1 sequence (whole entry): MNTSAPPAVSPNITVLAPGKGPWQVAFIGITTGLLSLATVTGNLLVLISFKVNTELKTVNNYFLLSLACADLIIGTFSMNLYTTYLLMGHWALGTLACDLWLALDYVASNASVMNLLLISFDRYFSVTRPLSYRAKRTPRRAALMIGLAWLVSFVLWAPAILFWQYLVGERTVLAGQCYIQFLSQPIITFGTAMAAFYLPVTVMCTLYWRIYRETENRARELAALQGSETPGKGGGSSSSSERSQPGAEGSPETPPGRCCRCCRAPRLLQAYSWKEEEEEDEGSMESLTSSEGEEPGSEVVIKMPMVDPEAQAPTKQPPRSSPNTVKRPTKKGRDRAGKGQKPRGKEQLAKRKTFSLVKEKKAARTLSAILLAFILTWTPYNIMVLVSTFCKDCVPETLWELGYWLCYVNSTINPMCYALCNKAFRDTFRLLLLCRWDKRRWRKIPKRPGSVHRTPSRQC

[2] = target: T2, Muscarinic acetylcholine receptor M2 (Homo sapiens) (UniProt P08172); experiment: Agonist activity at human muscarinic M2 receptor expressed in CHO-K1 cells coexpressing Galpha16 subunit assessed as increase of acetylcholine-induced calcium flux at 10 uM by FLIPR assay relative to acetylcholine; assay type: functional, cell-based
T2 sequence (whole entry): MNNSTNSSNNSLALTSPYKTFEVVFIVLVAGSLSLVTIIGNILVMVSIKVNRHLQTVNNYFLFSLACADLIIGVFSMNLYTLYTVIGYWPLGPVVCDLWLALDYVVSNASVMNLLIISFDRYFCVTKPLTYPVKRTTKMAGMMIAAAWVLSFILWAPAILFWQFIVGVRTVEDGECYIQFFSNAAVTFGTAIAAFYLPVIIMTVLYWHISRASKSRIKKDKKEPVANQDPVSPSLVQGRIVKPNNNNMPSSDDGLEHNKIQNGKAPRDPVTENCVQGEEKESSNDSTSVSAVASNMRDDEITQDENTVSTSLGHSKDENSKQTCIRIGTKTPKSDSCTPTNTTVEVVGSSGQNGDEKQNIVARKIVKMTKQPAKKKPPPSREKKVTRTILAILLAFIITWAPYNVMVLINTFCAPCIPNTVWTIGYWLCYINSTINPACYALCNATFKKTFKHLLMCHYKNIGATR

[3] = target: T3, Muscarinic acetylcholine receptor M3 (Homo sapiens, UniProt P20309); experiment: Agonist activity at human muscarinic M3 receptor expressed in BHK-21 cells assessed as increase of acetylcholine-induced calcium flux at 10 uM by FLIPR assay relative to acetylcholine; assay type: functional, cell-based
Target sequence in this assay (P20309 whole entry, looked up): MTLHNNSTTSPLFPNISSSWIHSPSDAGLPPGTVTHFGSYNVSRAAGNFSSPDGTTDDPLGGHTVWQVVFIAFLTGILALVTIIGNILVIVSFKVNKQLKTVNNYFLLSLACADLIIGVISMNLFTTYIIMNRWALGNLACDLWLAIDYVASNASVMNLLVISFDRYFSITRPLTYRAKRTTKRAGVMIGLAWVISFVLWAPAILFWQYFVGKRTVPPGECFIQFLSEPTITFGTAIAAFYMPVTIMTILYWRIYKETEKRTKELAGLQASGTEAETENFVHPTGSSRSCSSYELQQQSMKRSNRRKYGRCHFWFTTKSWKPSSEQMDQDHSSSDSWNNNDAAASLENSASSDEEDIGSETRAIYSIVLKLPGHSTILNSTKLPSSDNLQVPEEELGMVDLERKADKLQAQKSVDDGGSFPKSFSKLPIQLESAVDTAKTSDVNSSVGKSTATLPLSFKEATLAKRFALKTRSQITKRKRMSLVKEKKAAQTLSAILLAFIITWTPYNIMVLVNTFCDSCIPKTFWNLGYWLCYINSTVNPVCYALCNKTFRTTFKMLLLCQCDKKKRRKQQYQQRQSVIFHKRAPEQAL

[4] = target: T4, Muscarinic acetylcholine receptor M4 (Homo sapiens, UniProt P08173); experiment: Agonist activity at human muscarinic M4 receptor expressed in BHK-21 cells coexpressing Galpha16 subunit assessed as increase of acetylcholine-induced calcium flux by FLIPR assay; assay type: functional, cell-based
T4 sequence (P08173 whole entry): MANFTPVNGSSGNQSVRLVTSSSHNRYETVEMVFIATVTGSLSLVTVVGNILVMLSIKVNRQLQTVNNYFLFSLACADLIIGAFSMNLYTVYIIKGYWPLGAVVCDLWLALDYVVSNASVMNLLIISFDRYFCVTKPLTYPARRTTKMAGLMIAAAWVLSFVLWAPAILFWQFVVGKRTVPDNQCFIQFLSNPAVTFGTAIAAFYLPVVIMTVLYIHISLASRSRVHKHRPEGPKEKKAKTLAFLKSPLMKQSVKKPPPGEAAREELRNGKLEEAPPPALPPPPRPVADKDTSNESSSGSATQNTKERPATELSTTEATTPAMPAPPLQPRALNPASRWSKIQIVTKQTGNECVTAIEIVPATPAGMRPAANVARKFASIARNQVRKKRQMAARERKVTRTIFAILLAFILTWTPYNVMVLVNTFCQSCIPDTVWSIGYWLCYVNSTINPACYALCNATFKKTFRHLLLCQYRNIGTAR

[5] = target: T5, Muscarinic acetylcholine receptor M4 (Homo sapiens) (UniProt P08173); experiment: Agonist activity at human muscarinic M4 receptor expressed in BHK-21 cells coexpressing Galpha16 subunit assessed as increase of acetylcholine-induced calcium flux by FLIPR assay relative to acetylcholine; assay type: functional, cell-based
T5 sequence (whole entry): T4 sequence (P08173 whole entry)

[6] = target: T6, Muscarinic acetylcholine receptor M5 (Homo sapiens, UniProt P08912); experiment: Agonist activity at human muscarinic M5 receptor expressed in BHK-21 cells assessed as increase of acetylcholine-induced calcium flux by FLIPR assay; assay type: functional, cell-based
T6 sequence (P08912 whole entry): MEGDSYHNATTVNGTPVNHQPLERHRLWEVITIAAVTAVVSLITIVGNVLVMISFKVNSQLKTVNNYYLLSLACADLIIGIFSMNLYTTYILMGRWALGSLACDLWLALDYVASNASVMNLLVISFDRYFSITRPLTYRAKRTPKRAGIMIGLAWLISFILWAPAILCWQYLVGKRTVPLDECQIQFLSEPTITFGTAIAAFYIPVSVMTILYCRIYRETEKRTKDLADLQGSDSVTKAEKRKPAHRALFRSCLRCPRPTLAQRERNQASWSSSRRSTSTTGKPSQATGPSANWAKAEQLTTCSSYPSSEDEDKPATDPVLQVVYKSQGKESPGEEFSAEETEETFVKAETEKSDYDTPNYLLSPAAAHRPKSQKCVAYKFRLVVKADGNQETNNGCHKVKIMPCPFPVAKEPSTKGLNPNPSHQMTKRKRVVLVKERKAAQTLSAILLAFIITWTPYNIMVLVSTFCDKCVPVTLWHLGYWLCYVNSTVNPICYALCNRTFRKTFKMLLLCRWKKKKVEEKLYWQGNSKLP

[7] = target: T7, Muscarinic acetylcholine receptor M5 (Homo sapiens) (UniProt P08912); experiment: Agonist activity at human muscarinic M5 receptor expressed in BHK-21 cells assessed as increase of acetylcholine-induced calcium flux by FLIPR assay relative to acetylcholine; assay type: functional, cell-based
T7 sequence (whole entry): T6 sequence (P08912 whole entry)

[8] = target: T8, Muscarinic acetylcholine receptor M1 (Homo sapiens, UniProt P11229)
T8 sequence (P11229 whole entry): T1 sequence (whole entry)

[9] = target: T1, Muscarinic acetylcholine receptor M1 (Homo sapiens); experiment: Agonist activity at human muscarinic M1 receptor expressed in CHO-K1 cells assessed as increase of acetylcholine-induced calcium flux at 10 uM by FLIPR assay relative to acetylcholine; assay type: functional, cell-based
[10] = target: T5, Muscarinic acetylcholine receptor M4 (Homo sapiens); experiment: Agonist activity at human muscarinic M4 receptor expressed in BHK-21 cells coexpressing Galpha16 subunit assessed as increase of acetylcholine-induced calcium flux at 10 uM by FLIPR assay relative to acetylcholine; assay type: functional, cell-based
[11] = target: T7, Muscarinic acetylcholine receptor M5 (Homo sapiens); experiment: Agonist activity at human muscarinic M5 receptor expressed in BHK-21 cells assessed as increase of acetylcholine-induced calcium flux at 10 uM by FLIPR assay relative to acetylcholine; assay type: functional, cell-based
[12] = target: T9, Muscarinic acetylcholine receptor M2 (Homo sapiens, UniProt P08172); experiment: Displacement of [3H]-AFDX-384 from human muscarinic M2 receptor expressed in CHO-K1 cells; assay type: cell-based
T9 sequence (P08172 whole entry): T2 sequence (whole entry)

[13] = target: 5-hydroxytryptamine receptor 2C (Homo sapiens, UniProt P28335); experiment: Binding affinity to human 5HT2C receptor agonist site by radioligand displacement assay
5-hydroxytryptamine receptor 2C, sequence (P28335 whole entry): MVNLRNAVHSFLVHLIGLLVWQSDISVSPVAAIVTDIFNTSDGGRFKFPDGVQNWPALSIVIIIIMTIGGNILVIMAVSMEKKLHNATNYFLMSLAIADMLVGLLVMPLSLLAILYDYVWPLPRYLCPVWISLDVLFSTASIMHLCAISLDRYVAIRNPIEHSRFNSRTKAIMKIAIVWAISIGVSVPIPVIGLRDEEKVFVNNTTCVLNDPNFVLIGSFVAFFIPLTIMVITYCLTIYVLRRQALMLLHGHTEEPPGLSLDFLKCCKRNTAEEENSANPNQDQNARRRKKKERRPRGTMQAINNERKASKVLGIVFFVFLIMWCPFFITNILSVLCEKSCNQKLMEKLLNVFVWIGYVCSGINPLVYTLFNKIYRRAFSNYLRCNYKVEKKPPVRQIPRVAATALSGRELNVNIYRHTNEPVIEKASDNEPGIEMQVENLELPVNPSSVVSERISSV

[14] = target: Alpha-1A adrenergic receptor (Homo sapiens, UniProt P35348); experiment: Binding affinity to human adrenergic alpha1A receptor by radioligand displacement assay
Alpha-1A adrenergic receptor, sequence (P35348 whole entry): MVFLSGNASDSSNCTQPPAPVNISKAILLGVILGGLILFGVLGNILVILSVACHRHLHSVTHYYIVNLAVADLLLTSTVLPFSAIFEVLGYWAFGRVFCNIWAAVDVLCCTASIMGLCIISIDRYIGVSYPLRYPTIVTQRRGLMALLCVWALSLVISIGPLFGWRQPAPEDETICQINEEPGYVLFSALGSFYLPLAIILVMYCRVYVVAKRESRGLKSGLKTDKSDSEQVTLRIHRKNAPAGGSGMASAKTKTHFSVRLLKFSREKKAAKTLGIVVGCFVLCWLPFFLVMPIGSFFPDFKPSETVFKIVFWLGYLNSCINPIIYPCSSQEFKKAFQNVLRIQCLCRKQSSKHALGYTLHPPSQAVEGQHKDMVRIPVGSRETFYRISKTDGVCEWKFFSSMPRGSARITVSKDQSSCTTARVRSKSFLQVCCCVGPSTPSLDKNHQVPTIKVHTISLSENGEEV

[15] = target: Alpha-1B adrenergic receptor (Homo sapiens, UniProt P35368); experiment: Binding affinity to human adrenergic Alpha-1B receptor by radioligand displacement assay
Alpha-1B adrenergic receptor, sequence (P35368 whole entry): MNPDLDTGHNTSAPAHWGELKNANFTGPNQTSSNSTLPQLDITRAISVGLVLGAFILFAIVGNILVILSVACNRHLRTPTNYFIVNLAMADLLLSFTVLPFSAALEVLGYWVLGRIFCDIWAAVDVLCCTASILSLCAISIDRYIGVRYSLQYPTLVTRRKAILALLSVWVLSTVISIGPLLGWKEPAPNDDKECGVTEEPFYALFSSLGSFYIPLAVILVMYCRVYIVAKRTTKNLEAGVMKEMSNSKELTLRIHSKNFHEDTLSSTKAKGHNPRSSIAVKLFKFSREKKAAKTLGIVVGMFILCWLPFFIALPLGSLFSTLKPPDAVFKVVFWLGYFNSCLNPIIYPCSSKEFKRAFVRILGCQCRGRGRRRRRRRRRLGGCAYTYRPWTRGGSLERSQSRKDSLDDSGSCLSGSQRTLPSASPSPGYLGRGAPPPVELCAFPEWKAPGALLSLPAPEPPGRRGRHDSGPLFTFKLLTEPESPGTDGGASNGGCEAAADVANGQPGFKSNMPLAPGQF

[16] = target: Alpha-1D adrenergic receptor (Homo sapiens, UniProt P25100); experiment: Binding affinity to human adrenergic Alpha-1D receptor by radioligand displacement assay
Alpha-1D adrenergic receptor, sequence (P25100 whole entry): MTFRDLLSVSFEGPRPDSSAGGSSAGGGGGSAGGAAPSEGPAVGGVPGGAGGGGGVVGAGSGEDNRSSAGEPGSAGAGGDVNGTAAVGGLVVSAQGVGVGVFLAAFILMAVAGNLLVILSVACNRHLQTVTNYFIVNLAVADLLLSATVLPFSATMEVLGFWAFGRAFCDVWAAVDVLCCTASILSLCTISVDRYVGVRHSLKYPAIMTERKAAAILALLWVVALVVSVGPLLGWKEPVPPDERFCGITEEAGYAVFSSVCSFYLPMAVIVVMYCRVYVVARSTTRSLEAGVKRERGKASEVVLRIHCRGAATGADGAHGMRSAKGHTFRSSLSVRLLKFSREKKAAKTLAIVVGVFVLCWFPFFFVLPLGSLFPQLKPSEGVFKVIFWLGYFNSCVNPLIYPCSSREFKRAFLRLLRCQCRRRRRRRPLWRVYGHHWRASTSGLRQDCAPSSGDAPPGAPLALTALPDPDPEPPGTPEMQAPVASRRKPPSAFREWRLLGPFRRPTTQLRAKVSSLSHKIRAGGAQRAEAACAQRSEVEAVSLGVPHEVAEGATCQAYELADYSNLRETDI

[17] = target: T6, Muscarinic acetylcholine receptor M5; experiment: biochemical
Description: Displacement of [3H]-4-DAMP from human muscarinic M5 receptor expressed in BHK-21 cells

[18] = target: T3, Muscarinic acetylcholine receptor M3; experiment: Displacement of [3H]-4-DAMP from human muscarinic M3 receptor expressed in BHK-21 cells; assay type: cell-based
Target sequence in this assay (P20309 whole entry): as the sequence (P20309 whole entry, looked up) above

[19] = target: T3, Muscarinic acetylcholine receptor M3
Target sequence in this assay (P20309 whole entry): as the sequence (P20309 whole entry, looked up) above

[20] = test system: Muscarinic acetylcholine receptor M1 (Homo sapiens), P11229 [Y381A]; experiment: Agonist activity at human muscarinic M1 receptor Y381A mutant expressed in CHO-K1 cells assessed as increase of acetylcholine-induced calcium flux by FLIPR assay relative to acetylcholine; assay type: functional, cell-based
Muscarinic acetylcholine receptor M1 (Homo sapiens), P11229 [Y381A], sequence (P11229 whole entry Y381A): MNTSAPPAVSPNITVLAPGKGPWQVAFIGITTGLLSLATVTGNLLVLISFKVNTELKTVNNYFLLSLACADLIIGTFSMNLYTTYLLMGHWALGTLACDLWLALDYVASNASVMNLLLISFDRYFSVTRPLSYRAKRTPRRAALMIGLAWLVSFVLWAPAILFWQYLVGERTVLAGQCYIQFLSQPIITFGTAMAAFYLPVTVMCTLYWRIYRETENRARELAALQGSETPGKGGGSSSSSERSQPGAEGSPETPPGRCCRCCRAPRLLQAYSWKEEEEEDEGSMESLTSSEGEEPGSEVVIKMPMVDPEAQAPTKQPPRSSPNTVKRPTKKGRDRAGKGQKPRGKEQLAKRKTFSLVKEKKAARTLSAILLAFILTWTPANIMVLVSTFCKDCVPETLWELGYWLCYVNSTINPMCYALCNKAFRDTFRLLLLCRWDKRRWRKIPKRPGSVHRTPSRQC

[21] = target: Muscarinic acetylcholine receptor M1 (Homo sapiens, UniProt P11229, Y381A)
Muscarinic acetylcholine receptor M1 (Homo sapiens, UniProt P11229, Y381A), sequence (P11229 whole entry Y381A): as above

Structure (SMILES)	Emax [1] [%]	EC50 [8] [nM]	further results
COc1ccc(CC(=O)NC2CCN(CCCN3C(=O)CCc4cc(F)c(F)cc43)CC2)cc1OC	91	13	Emax [2]: 2%; Emax [3]: 7%; EC50 [4]: 300 nM; Emax [5]: 48%; EC50 [6]: 1200 nM; Emax [7]: 52%
COc1ccc2c(c1)CCC(=O)N2CCCN1CCC(NC(=O)Cc2ccccc2)CC1	84	560	–
O=C(NC1CCN(CCCN2C(=O)COc3ccccc32)CC1)C1CCCCC1	–	–	Emax [9]: 3%
CCC(=O)NC1CCN(CCCN2C(=O)COc3ccccc32)CC1	78	27	–
Cc1ccccc1CN1CCC(N2CCC(n3c(=O)[nH]c4ccccc43)CC2)CC1	86	–	Emax [3]: 1%; Emax [10]: 38%; Emax [11]: 5%; Ki [12]: 320 nM; Ki [13]: 85 nM; Ki [14]: 11 nM; Ki [15]: 19 nM; Ki [16]: 290 nM; Ki [17]: 940 nM
CCCCCCOc1nsnc1C1=CCCN(C)C1 [XANOMELINE]	89	–	Emax [2]: 9%; Emax [5]: 72%; Emax [7]: 60%; Ki [18]: 13 nM; EC50 [19]: 120 nM
CCC(=O)NC1CCN(CCCN2C(=O)COc3cc(F)c(F)cc32)CC1	88	10	–
O=C(CCc1ccccc1)NC1CCN(CCCN2C(=O)COc3ccccc32)CC1	60	970	–
Clc1ccc2c(c1)N=C(N1CCNCC1)c1ccccc1N2 [N-DESMETHYLCLOZAPINE]	75	18	Emax [2]: 3%; Emax [3]: 10%; Emax [5]: 12%; EC50 [6]: 170 nM; Emax [7]: 34%; Ki [12]: 250 nM; Ki [18]: 90 nM; Emax [20]: 72%; EC50 [21]: 140 nM; Ki [17]: 51 nM
O=C(Cc1ccccc1)NC1CCN(CCCN2C(=O)CCc3cc(F)ccc32)CC1	79	49	–
O=C(NC1CCN(CCCN2C(=O)COc3ccccc32)CC1)c1ccccc1	–	–	Emax [9]: 8%
O=C(NC1CCN(CCCN2C(=O)COc3ccccc32)CC1)C1CCC1	37	160	–
O=C(NC1CCN(CCCN2C(=O)COc3ccccc32)CC1)C1CCCC1	41	350	–
O=C(Cc1ccccc1)NC1CCN(CCCN2C(=O)CCc3ccc(F)cc32)CC1	86	51	–
CC(C)CC(=O)NC1CCN(CCCN2C(=O)COc3ccccc32)CC1	–	–	Emax [9]: 21%
CCC(=O)NC1CCN(CCCN2C(=O)CCc3cc(F)ccc32)CC1	83	9	–
O=C(Cc1ccccc1)NC1CCN(CCCN2C(=O)CSc3ccccc32)CC1	79	100	–
CCC(=O)NC1CCN(CCCN2C(=O)CCc3c(F)cccc32)CC1	90	19	–
CC(C)C(=O)NC1CCN(CCCN2C(=O)COc3ccccc32)CC1	72	46	–

Continued, in another order:

Emax [1] [%]	EC50 [8] [nM]	Structure (SMILES)	further results
89	15	O=C(Cc1ccccc1)NC1CCN(CCCN2C(=O)CCc3cc(F)c(F)cc32)CC1	–
83	120	COc1ccc2c(c1)N(CCCN1CCC(NC(=O)Cc3ccccc3)CC1)C(=O)CC2	–
78	310	CCC(=O)NC1CCN(CCCN2C(=O)CCc3cccc(F)c32)CC1	–
83	20	CCC(=O)NC1CCN(CCCN2C(=O)CCc3ccc(F)cc32)CC1	–
75	290	O=C(Cc1ccccc1)NC1CCN(CCCN2C(=O)CCc3cccc(F)c32)CC1	–
77	150	O=C(Cc1ccccc1)NC1CCN(CCCN2C(=O)CCc3c(F)cccc32)CC1	–
74	110	O=C(NC1CCN(CCCN2C(=O)COc3ccccc32)CC1)C1CC1	–
89	48	O=C(Cc1ccccc1)NC1CCN(CCCN2C(=O)CCc3ccccc32)CC1	–
86	130	COc1cccc(CC(=O)NC2CCN(CCCN3C(=O)COc4ccccc43)CC2)c1	Emax [2]: 0%; Emax [3]: 0%; Emax [10]: 3%; Emax [11]: 6%
70	1100	O=C(Cc1ccccc1)NC1CCN(CCCn2c(=O)oc3ccccc32)CC1	–
87	20	CCC(=O)NC1CCN(CCCN2C(=O)CCc3cc(F)c(F)cc32)CC1	–
74	180	CC(=O)NC1CCN(CCCN2C(=O)COc3ccccc32)CC1	–
76	86	CC(=O)NC1CCN(CCCN2C(=O)CCc3cc(F)c(F)cc32)CC1	–
67	910	CN(C(=O)Cc1ccccc1)C1CCN(CCCN2C(=O)COc3ccccc32)CC1	–
